In ChEMBL document CHEMBL4393662, “Structural optimization on a virtual screening hit of smoothened receptor” (Eur J Med Chem, 2019):
Active and inactive are the calls of the source. The calls are words filed in the database; no cut-off is given here.

Key:
[1] = molecular target: Protein smoothened (Mus musculus, UniProt P56726); assay: Antagonist activity at Smo receptor in mouse NIH/3T3 cells harboring GRE-Luc assessed as inhibition of SAG-induced Hh signaling pathway preincubated with cells followed by SAG addition measured after 48 hrs by luciferase reporter gene assay; format: cell-based
[2] = test system: HEK293; assay: Inhibition of Wnt pathway in HEK293 cells harbouring TCF-luciferase cocultured with LWnt3A cells by Topflash reporter gene assay; format: cell-based; details: Homo sapiens
[3] = molecular target: Voltage-gated inwardly rectifying potassium channel KCNH2 (Homo sapiens, UniProt Q12809); assay: Inhibition of human ERG by patch clamp method
[4] = molecular target: CYP2D6 (Homo sapiens, UniProt P10635); assay: Inhibition of CYP2D6 (unknown origin) at 10 uM relative to control; format: ADME
[5] = molecular target: CYP3A4 (Homo sapiens, UniProt P08684); assay: Inhibition of CYP3A4 (unknown origin) at 10 uM relative to control; format: ADME
[6] = molecular target: T1, CYP1A2 (Homo sapiens, UniProt P05177); assay: Inhibition of CYP1A2 (unknown origin) at 10 uM relative to control; format: ADME
T1 sequence (P05177 whole entry): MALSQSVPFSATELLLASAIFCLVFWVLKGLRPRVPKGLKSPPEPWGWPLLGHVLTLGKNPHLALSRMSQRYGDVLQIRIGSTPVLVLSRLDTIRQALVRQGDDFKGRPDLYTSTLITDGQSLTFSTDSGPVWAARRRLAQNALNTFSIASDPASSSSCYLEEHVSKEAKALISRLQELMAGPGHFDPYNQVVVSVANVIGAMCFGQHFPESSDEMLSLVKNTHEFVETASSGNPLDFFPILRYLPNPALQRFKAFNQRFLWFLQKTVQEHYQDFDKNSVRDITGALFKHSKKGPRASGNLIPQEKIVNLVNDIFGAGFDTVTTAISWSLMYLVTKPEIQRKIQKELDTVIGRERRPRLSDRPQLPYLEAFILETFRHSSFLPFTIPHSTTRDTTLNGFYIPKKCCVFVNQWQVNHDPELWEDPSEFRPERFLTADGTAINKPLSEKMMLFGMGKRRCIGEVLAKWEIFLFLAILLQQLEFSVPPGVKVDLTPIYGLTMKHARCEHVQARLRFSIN

[7] = molecular target: CYP2C9 (Homo sapiens, UniProt P11712); assay: Inhibition of CYP2C9 (unknown origin) at 10 uM relative to control; format: ADME
[8] = Apparent permeability from apical to basolateral side in human Caco2 cells; format: ADME, cell-based; details: Caco-2
[9] = Efflux ratio of apparent permeability in human Caco2 cells; format: ADME, cell-based; details: Caco-2
[10] = Intrinsic clearance in human liver microsomes at 1 uM; format: ADME, Microsome; details: read-out: CLH
[11] = molecular target: CYP2C19 (Homo sapiens, UniProt P33261); assay: Inhibition of CYP2C19 (unknown origin) at 10 uM relative to control; format: ADME
[12] = test system: Medulloblastoma cell; assay: Antiproliferative activity against mouse Ptch+/- medulloblastoma cells assessed as inhibition of cell growth incubated for 36 hrs by CCK-8 assay; format: functional, cell-based
[13] = test system: U-251; assay: Cytotoxicity activity human U251 cells assessed as reduction of cell viability upto 1000 nM incubated for 48 hrs by CCK-8 assay; format: cell-based; details: u-251, 48 h
[14] = molecular target: Protein smoothened (Mus musculus) (UniProt P56726); assay: Antagonist activity at Smo receptor in mouse NIH/3T3 cells assessed as inhibition of Gli1 mRNA expression incubated for 48 hrs by qRT-PCR analysis; format: cell-based
[15] = test system: Protein smoothened (Homo sapiens), Q99835 [D473H]; assay: Antagonist activity at Smo D473H mutant receptor in mouse NIH/3T3 cells assessed as inhibition of Gli1 mRNA expression incubated for 48 hrs by qRT-PCR analysis; format: cell-based
[16] = Intrinsic clearance in rat liver microsomes at 1 uM; format: ADME, Microsome; details: read-out: CLH
[17] = Half life in human liver microsomes at 1 uM; format: ADME, Microsome
[18] = Half life in rat liver microsomes at 1 uM; format: ADME, Microsome
[19] = molecular target: Protein smoothened (Homo sapiens, UniProt Q99835); assay: Displacement of BODIPY-Cyclopamine from human HA-tagged Smo receptor expressed in human U2OS cells at 1 to 10000 nM incubated for 2 hrs by DAPI staining based fluorescence microscopic method; format: cell-based
Sequence of Protein smoothened (Homo sapiens, UniProt Q99835) (Q99835 whole entry): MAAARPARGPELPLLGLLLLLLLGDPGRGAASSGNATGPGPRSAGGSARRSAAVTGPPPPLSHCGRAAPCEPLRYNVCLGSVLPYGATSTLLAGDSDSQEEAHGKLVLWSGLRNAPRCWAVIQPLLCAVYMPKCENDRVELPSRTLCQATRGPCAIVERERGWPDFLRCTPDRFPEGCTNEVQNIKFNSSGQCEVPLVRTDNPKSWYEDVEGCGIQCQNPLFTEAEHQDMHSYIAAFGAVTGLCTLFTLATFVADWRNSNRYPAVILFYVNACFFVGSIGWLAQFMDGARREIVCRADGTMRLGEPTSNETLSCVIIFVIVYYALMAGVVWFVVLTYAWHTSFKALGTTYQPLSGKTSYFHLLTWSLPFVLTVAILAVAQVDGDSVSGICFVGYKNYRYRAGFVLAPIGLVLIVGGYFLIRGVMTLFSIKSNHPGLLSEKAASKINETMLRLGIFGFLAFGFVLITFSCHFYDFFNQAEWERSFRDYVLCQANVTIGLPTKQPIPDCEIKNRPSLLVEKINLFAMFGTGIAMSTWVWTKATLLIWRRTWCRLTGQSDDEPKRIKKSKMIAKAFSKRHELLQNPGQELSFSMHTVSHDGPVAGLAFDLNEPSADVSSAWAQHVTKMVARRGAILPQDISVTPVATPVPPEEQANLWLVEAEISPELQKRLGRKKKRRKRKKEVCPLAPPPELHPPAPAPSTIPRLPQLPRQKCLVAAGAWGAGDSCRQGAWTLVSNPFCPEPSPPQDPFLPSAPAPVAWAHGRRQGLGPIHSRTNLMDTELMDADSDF

Sequence of Protein smoothened (Mus musculus, UniProt P56726) (P56726 whole entry): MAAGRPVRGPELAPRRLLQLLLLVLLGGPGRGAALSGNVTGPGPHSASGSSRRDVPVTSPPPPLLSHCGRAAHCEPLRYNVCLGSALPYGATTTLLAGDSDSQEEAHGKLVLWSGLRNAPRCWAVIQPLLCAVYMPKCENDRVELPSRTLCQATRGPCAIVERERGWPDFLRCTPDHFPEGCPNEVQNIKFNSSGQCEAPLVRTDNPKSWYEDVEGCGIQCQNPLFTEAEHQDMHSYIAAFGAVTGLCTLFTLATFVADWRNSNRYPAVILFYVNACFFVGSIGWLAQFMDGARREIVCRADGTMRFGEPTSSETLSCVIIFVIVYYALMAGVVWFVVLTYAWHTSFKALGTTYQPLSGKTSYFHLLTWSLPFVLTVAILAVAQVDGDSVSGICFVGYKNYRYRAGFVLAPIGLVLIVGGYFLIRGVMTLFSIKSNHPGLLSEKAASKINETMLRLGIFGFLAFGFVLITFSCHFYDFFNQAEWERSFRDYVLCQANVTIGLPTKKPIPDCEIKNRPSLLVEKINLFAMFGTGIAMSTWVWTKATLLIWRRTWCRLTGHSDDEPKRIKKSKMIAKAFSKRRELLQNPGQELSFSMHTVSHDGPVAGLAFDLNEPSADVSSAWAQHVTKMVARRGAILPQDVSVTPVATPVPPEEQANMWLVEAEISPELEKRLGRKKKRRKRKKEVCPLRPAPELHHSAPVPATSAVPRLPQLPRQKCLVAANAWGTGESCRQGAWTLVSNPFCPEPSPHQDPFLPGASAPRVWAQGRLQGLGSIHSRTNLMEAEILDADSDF
Sequence of Protein smoothened (Homo sapiens), Q99835 [D473H] (Q99835 whole entry D473H): as the sequence (Q99835 whole entry) above, with D473H counted along it
Sequence of CYP2C9 (P11712 whole entry): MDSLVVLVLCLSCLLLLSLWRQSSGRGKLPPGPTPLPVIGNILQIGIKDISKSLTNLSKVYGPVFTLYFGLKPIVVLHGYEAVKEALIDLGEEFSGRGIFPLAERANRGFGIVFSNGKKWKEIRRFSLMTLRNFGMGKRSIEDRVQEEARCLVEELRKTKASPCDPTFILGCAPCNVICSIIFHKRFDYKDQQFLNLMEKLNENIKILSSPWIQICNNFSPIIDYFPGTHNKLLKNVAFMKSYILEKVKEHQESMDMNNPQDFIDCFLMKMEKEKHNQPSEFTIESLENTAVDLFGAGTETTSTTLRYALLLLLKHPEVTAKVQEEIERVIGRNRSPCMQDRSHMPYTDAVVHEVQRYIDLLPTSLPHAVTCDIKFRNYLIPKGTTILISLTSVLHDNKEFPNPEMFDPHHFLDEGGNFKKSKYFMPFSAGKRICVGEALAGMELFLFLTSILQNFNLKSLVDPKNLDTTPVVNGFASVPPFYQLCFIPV
Sequence of Voltage-gated inwardly rectifying potassium channel KCNH2 (Q12809 whole entry): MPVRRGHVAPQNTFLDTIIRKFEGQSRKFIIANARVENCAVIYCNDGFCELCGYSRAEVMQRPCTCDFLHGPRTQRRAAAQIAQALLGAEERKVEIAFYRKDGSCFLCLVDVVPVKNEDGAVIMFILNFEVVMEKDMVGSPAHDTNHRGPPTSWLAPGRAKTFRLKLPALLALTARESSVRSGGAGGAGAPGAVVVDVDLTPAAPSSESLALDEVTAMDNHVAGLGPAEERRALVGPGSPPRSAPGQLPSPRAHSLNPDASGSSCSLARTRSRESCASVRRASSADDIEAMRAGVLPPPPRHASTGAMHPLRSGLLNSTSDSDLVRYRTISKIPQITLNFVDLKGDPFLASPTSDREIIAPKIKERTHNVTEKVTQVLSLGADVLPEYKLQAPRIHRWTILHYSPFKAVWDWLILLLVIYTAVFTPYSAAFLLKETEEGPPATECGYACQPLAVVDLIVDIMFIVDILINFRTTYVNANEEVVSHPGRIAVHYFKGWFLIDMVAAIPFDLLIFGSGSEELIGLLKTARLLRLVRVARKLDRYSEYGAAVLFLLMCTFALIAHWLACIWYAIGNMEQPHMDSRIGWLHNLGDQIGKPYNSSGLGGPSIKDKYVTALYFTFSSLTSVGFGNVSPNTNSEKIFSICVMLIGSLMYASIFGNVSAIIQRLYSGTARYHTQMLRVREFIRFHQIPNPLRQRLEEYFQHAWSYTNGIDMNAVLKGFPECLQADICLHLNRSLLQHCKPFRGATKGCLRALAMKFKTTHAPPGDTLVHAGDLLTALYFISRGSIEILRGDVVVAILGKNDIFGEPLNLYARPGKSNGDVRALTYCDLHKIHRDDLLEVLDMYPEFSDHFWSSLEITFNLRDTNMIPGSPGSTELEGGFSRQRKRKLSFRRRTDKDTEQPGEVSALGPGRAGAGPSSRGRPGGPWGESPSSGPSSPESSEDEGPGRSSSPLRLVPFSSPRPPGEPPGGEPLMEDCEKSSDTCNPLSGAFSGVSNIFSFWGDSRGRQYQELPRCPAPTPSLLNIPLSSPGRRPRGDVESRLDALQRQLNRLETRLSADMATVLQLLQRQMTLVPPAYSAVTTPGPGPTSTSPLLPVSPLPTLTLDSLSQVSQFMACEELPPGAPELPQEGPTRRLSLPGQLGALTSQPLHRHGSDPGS
Sequence of CYP2C19 (P33261 whole entry): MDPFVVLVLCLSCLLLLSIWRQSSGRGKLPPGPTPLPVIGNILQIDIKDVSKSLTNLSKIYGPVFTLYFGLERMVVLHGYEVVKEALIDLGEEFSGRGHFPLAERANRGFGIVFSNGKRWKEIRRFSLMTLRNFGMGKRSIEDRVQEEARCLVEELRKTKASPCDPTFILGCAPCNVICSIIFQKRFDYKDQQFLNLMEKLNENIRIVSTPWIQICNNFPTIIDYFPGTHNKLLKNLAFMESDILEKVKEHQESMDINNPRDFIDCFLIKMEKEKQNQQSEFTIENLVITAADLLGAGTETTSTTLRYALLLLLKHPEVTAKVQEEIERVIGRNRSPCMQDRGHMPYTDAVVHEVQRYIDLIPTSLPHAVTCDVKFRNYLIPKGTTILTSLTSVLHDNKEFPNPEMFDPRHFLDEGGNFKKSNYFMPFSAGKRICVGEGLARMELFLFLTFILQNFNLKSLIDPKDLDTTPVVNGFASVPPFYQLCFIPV
Sequence of CYP2D6 (P10635 whole entry): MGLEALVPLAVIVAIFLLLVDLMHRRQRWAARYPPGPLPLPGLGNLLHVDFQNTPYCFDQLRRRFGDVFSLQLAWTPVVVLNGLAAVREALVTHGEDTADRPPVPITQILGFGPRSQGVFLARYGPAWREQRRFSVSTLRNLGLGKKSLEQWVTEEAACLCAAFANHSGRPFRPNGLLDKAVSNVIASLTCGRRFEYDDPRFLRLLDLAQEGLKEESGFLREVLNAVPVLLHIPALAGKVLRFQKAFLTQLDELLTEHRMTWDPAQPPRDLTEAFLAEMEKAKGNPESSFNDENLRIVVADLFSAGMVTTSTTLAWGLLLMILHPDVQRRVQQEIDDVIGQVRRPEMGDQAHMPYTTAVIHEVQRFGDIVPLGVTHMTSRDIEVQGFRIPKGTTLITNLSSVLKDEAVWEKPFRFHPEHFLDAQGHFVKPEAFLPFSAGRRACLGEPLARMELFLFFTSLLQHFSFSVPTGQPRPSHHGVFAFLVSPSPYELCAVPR
Sequence of CYP3A4 (P08684 whole entry): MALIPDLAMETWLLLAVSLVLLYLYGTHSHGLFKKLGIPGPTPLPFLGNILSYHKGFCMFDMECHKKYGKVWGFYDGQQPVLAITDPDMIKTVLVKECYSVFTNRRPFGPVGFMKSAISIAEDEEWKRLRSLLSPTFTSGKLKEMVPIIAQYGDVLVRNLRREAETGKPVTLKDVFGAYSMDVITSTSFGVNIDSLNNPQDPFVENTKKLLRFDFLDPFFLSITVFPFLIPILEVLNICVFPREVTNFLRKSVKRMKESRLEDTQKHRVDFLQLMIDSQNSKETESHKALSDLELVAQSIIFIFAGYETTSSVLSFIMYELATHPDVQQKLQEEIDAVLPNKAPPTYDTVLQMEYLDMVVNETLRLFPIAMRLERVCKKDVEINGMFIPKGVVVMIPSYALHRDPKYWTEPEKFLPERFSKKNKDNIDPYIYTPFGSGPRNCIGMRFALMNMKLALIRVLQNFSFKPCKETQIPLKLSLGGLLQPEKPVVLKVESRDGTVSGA
Sequence of Protein smoothened (Mus musculus) (P56726 whole entry): as the sequence (P56726 whole entry) above

Compound	IC50 [1]	inhibition [2]	other results
Cc1cnc(NCc2ccnn2-c2nnc(N3CCC(C(=O)NC4CCCCC4C)CC3)s2)nc1 (configuration not stated)	180 nM	Active	
CC1CCCCC1NC(=O)C1CCN(c2nnc(-n3nccc3CNc3cccnc3)s2)CC1 (configuration not stated)	69 nM	Active	
CC1CCCCC1NC(=O)C1CCN(c2nnc(-n3nccc3CNc3ccccn3)s2)CC1 (configuration not stated)	18 nM	Active	
Cc1ccc(NCc2ccnn2-c2nnc(N3CCC(C(=O)NC4CCCCC4C)CC3)s2)nc1 (racemic)	7.1 nM	Active	IC50 [19]: 3.9 nM
Cc1ccc(NCc2ccnn2-c2nnc(N3CCC(C(=O)NC4CCCCC4C)CC3)s2)cn1 (configuration not stated)	51 nM	Active	
Cc1ccc(NCc2ccnn2-c2nnc(N3CCC(C(=O)NC4CCCCC4C)CC3)s2)nn1 (configuration not stated)	81 nM	Active	
Cc1ccc(NCc2ccnn2-c2nnc(N3CCC(C(=O)Nc4ncccc4C)CC3)s2)nc1	280 nM	Active	
Cc1ccc(CCc2ccnn2-c2nnc(N3CCC(C(=O)NC4CCCCC4C)CC3)s2)nc1 (configuration not stated)	57 nM	Active	
Cc1cc(C)n(-c2nnc(N3CCC(C(=O)NC4CCCCC4C)CC3)s2)n1 (configuration not stated)	> 10000 nM		
CS(=O)(=O)c1ccc(C(=O)Nc2ccc(Cl)c(-c3ccccn3)c2)c(Cl)c1 [VISMODEGIB]			IC50 [12]: 4.7 nM; Activity [13]: Non-Toxic; inhibition [15]: inactive
Cc1ccc(OCc2ccnn2-c2nnc(N3CCC(C(=O)NC4CCCCC4C)CC3)s2)nc1 (configuration not stated)	42 nM	Active	

Second part, led by results:

IC50 [1]	Compound	inhibition [2]	other results
7.1 nM	Cc1ccc(NCc2ccnn2-c2nnc(N3CCC(C(=O)N[C@H]4CCCC[C@H]4C)CC3)s2)nc1	Active	IC50 [3]: > 30000 nM; inhibition at 10 µM [4]: 59%; inhibition at 10 µM [5]: 72%; inhibition at 10 µM [6]: -4%; inhibition at 10 µM [7]: 26%; Papp A→B [8]: 23 ×10⁻⁶ cm/s; efflux ratio [9]: 1.03; CLint scaled at 1 µM [10]: 2700 mL/min/kg; inhibition at 10 µM [11]: 7.1%; IC50 [12]: 0.5 nM; Activity [13]: Non-Toxic; inhibition [14]: Active; inhibition [15]: Active; CLint scaled at 1 µM [16]: 2000 mL/min/kg; half-life at 1 µM [17]: 38.4 s; half-life at 1 µM [18]: 78 s
> 10000 nM	C[C@@H]1CN(c2nnc(Cc3ccccc3)s2)CCN1c1cnc(C(C)(C)O)cn1		
460 nM	Cc1ccc(NCc2ccnn2-c2nnc(N3CCC(C(=O)Nc4cccnc4C)CC3)s2)nc1	Active	
> 10000 nM	CN(C(=O)c1ccc(F)cc1C(F)(F)F)C1CCN(c2nnc(-c3ccnn3C)s2)CC1		
410 nM	Cc1cnc(NCc2ccnn2-c2nnc(N3CCC(C(=O)NC4CCCCC4C)CC3)s2)cn1 (configuration not stated)	Active	
290 nM	Cc1ccc(NCc2ccccc2-c2nnc(N3CCC(C(=O)NC4CCCCC4C)CC3)s2)nc1 (configuration not stated)	Active	
550 nM	Cc1ccc(NCc2ccnn2-c2nnc(N3CCC(C(=O)Nc4cnccc4C)CC3)s2)nc1	Active	
> 10000 nM	CC1CCCCC1NC(=O)C1CCN(c2nnc(-n3cccn3)s2)CC1 (configuration not stated)		
46 nM	Cc1ccc(NCc2ccnn2-c2nnc(N3CCC(C(=O)NC4CCCCC4C)CC3)s2)cc1 (configuration not stated)	Active	IC50 [19]: 18 nM
140 nM	Cc1ccc(NCc2ccnn2-c2nnc(N3CCC(C(=O)Nc4ccccc4C)CC3)s2)nc1	Active	
1800 nM	Cc1ccc(NCc2c(-c3nnc(N4CCC(C(=O)NC5CCCCC5C)CC4)s3)cnn2C)nc1 (configuration not stated)	Active	
> 10000 nM	CC1CCCCC1NC(=O)C1CCN(c2nnc(-n3nccc3CO)s2)CC1 (configuration not stated)		
220 nM	Cc1ccc(NCc2ccnn2-c2nnc(N3CCC(C(=O)Nc4ccncc4C)CC3)s2)nc1	Active	
3700 nM	CC(O)c1ccnn1-c1nnc(N2CCC(C(=O)NC3CCCCC3C)CC2)s1 (configuration not stated)	Active	
8.4 nM	Cc1ccc(NCc2ccnn2-c2nnc(N3CCC(C(=O)N[C@@H]4CCCC[C@@H]4C)CC3)s2)nc1	Active	
> 10000 nM	CC1CCCCC1NC(=O)C1CCN(c2nnc(-c3ccnn3C)s2)CC1 (configuration not stated)		
